Measured values reported in patent US11826402B2, “Combination therapy involving antibodies against claudin 18.2 for treatment of metastatic pancreatic adenocarcinoma” (Astellas Pharma Inc., priority 2013, dated 2023).

Experiments:
Format in all cases: cell-based, human
Kato III cells [1] = test: Cell cycle analysis of gastric cancer cells with cytostatic compounds
Method: Kato III cells, a human gastric tumor cell line, was cultivated in RPMI 1640 medium (Invitrogen) containing 20% FCS (Perbio) and 2 mM Glutamax (Invitrogen) at 37° C. and 5% CO2, with or without cytostatic compounds. 5-FU (Neofluor from NeoCorp AG) was tested at a concentration of 10 or 100 ng/ml, and oxaliplatin (Hospira) was tested at a concentration of 50 or 500 ng/ml. […] Cells were harvested with EDTA/trypsin, washed and analysed.
Cell cycle stages were determined based on measurement of cellular DNA content. This allows one to discriminate between cells in the G1-, S- or G2-phase of the cell cycle. In the S-phase DNA duplication occurs whereas in the G2-phase cells grow and prepare for mitosis. Cell cycle analysis was done using the CycleTEST PLUS DNA Reagent Kit from BD Biosciences following the manufacturer's protocol. Flow cytometry acquisition and analysis were performed by using BD FACS CantoII (BD Biosciences) and FlowJo (Tree Star) software.
Kato III cells were pretreated for 4 days with Irinotecan or Docetaxel and analysed for CLDN18.2 expression and cell cycle arrest.

KATO-III = test: IMAB362-induced ADCC on gastric cancer cells, also after chemotherapy pretreatment; details: Kato III pretreated 3 days; Irinotecan 1000 ng/ml, Docetaxel 5 ng/ml, Cisplatin 2000 ng/ml
Method: Peripheral blood mononuclear cells (PBMCs) including NK cells, monocytes, […] or other effector cells from healthy human donors were purified by Ficoll Hypaque density centrifugation. Washed effector cells were seeded in X-Vivo medium. Kato III cells which express CLDN18.2 endogenously and are of gastric origin were used as target cells in this setting. Target cells stably expressed luciferase, lucifer yellow, which is oxidized by viable cells only.

Kato III cells [2] = test: Kato III cells pretreated with cytostatic compounds: cell growth, viable cells, CLDN18.2 expression; details: for claudin18.2 expression versus medium cultivated cells / level of viable cells versus medium cultivated cells: Kato III pretreated 3 days, Irinotecan 1000 ng/ml, Docetaxel 5 ng/ml, Cisplatin 2000 ng/ml; for cell growth: Kato III pretreated for 4 days
MiaPaCa-2-LVT = test: Inhibition of proliferation (XTT viability assay, 4 days)
Method: To analyze dose-response curves of each chemotherapeutic agent, a proliferation assay was performed.
Cells were seeded in 96 well plates and after 4-6 hours gemcitabine or oxaliplatin was added in following concentrations: 1000, 500, 250, 100 and 20 ng/ml. The proliferation assay was incubated for 4 days at 37° C. and 5% CO2. 50 μl XTT complete reagent (50 parts XTT+1 part coupl. reagent mixed) was added and incubated at 37° C. Measurement of absorbance (cells plus supernatant) was done with the Tecan Safire after 3 h and 4 h. Inhibition of proliferation was calculated compared to medium values set as 100%. EC50 values for gemcitabine and oxaliplatin were calculated in the GraphPad Prism program.

Structure (SMILES)	cell cycle effect (Kato III cells [1])	effect of pretreatment on IMAB362 induced ADCC (KATO-III)	claudin18.2 expression versus medium cultivated cells (Kato III cells [2])	level of viable cells versus medium cultivated cells (Kato III cells [2])	cell growth (Kato III cells [2])	sensitivity of cells to the agent (MiaPaCa-2-LVT)
O=c1[nH]cc(F)c(=O)[nH]1 [5-FU, 5-fluoro-1H-pyrimidine-2,4-dione]	blocked predominantly in the S-phase					
N.N.[Cl][Pt][Cl] [Cisplatin, cis-diaminedichloroplatinum(II)]		augments the potency of IMAB362 to induce ADCC	increased	lower level of viable cells		
CC(=O)O[C@@]12CO[C@@H]1C[C@H](O)[C@@]1(C)C(=O)[C@H](O)C3=C(C)[C@@H](OC(=O)[C@H](O)[C@@H](NC(=O)OC(C)(C)C)c4ccccc4)C[C@@](O)([C@@H](OC(=O)c4ccccc4)[C@H]21)C3(C)C [Docetaxel, 1,7β,10β-trihydroxy-9-oxo-5β,20-epoxytax-11-ene-2α,4,13α-triyl 4-acetate 2-benzoate 13-{(2R,3S)-3-[(tert-butoxycarbonyl)-amino]-2-hydroxy-3-phenylpropanoate}]	cell cycle arrest in the G2-phase	augments the potency of IMAB362 to induce ADCC	increased	lower level of viable cells	dose dependent inhibition of cell growth	
CCc1c2c(nc3ccc(OC(=O)N4CCC(N5CCCCC5)CC4)cc13)-c1cc3c(c(=O)n1C2)COC(=O)[C@]3(O)CC [Irinotecan, (S)-4,11-diethyl-3,4,12,14-tetrahydro-4-hydroxy-3,14-dioxo1H-pyrano[3′,4′:6,7]-indolizino[1,2-b]quinolin-9-yl-[1,4′-bipiperidine]-1′-carboxylate]	cell cycle arrest in the S/G2-phase	augments the potency of IMAB362 to induce ADCC	increased	lower level of viable cells	dose dependent inhibition of cell growth	
O=C1[O][Pt]2([NH][C@@H]3CCCC[C@H]3[NH]2)[O]C1=O [oxaliplatin, [(1R,2R)-cyclohexane-1,2-diamine](ethanedioato-O,O′)platinum(II)]						most sensitive
